Measured values: patent US9084769B2, “Compositions comprising non steroidal anti-inflammatory drugs and methods for use thereof” (priority 2011, dated 2015)
Read-outs that look alike come from different tables or passages of the source.

How the values were obtained:
[1] = changes in hemoglobin over seven weeks (HemoCue Hb 201); format: in vivo; conditions: mice followed for seven weeks, blood on days 0, 14, 28, 49; FIG. 3
Method: To investigate changes in Hb, mice treated with Epi, Ibu, ZnCar, Nap, Cox, Ibu+Epi, Ibu+ZnCar, and Ibu+Epi+ZnCar were used. A total of 5 mice per group were used. Mice were followed for seven weeks and blood was drawn on days 0, 14, 28, and 49. Hemoglobin was assessed in blood drawn from mice using a HemoCue Hb 201 analyzer. A drop of mouse blood was placed on a HemoCue microcuvette and assessed immediately. Measurements were recorded in millimole per liter.

[2] = system: Carrageenin-induced hind paw edema; experiment: Carrageenin-induced hind paw edema; format: in vivo, SD rats; conditions: oral, specific predetermined doses; plethysmometer, baseline and three hours after induction
Method: C57Bl/6 mice and Sprague-Dawley (SD) rats were used. Animals were group-housed under controlled temperature (25° C.) and photoperiods (12:12-hour light-dark cycle), and allowed unrestricted access to standard diet and tap water, unless otherwise noted. Animals were allowed to acclimate to these conditions for at least 7 days before inclusion in experiments. For each group of experiments, animals were matched by age, sex, and body weight. Care and experimentation of mice were performed in accordance with guidelines under protocols approved by the Institutional Animal Care and Use Committee. To evaluate the effects of inflammation, Epi, ZnCar, Ibu, Nap, Cox, Ibu+Epi, Ibu+ZnCl, Ibu+ZnSt, Ibu+ZnCar, Ibu+Epi+ZnCl, and Ibu+Epi+ZnCar were administered in specific predetermined doses. Six rats were used in each group. Carrageenin-induced hind paw edema was established in SD rats using Lambda-carrageenin solution injected so into the right hind paw within the first hour of oral administration of these drugs. The paw volume was estimated using a plethysmometer both at baseline and three hours following induction.

[3] = system: acetylcholine-induced mouse writing model; experiment: acetylcholine-induced mouse writing model (analgesic effects); format: in vivo, mice; conditions: oral, predetermined ED50 dose ranges, 30 min before i.p. acetylcholine; writhes counted for 30 min; FIG. 1
Method: C57Bl/6 mice and Sprague-Dawley (SD) rats were used. Animals were group-housed under controlled temperature (25° C.) and photoperiods (12:12-hour light-dark cycle), and allowed unrestricted access to standard diet and tap water, unless otherwise noted. Animals were allowed to acclimate to these conditions for at least 7 days before inclusion in experiments. For each group of experiments, animals were matched by age, sex, and body weight. Care and experimentation of mice were performed in accordance with guidelines under protocols approved by the Institutional Animal Care and Use Committee.
To evaluate the effects of pain, the analgesic effects of Epi, ZnCar, Ibu, Nap, Cox, Ibu+Epi, Ibu+ZnCl, Ibu+ZnSt, Ibu+ZnCar, Ibu+Epi+ZnCl, and Ibu+Epi+ZnCar were tested in acetylcholine-induced (8.3 mg/kg, i.p.) mouse writing model. Seven mice were used in each group and were administered drugs orally at predetermined ED50 dose ranges. Thirty minutes after the oral administration of test drug, mice were provided with an intraperitoneal injection of 5.5 mg/kg acetylcholine bromide. […] The number of writhes was counted for 30 min and percentage nociception was calculated and correlatively compared between the groups.

Molecule | change in hemoglobin [1] | change in systolic blood pressure (in words) (mice, measured daily, tail-cuff, p<0.05) | clinical response, paw volume 3 hours after carrageenin injection [2] | antinociceptive response (number of writhes, percentage nociception) [3] | change in systolic blood pressure (in words) (mouse, in vivo) | systolic blood pressure (mean) (mouse, in vivo) [mmHg]
Cc1ccc(-c2cc(C(F)(F)F)nn2-c2ccc(S(N)(=O)=O)cc2)cc1 [Cox, celecoxib] | progressive decrease in hemoglobin | significant elevations in systolic blood pressure | – | – | – | –
O=C[C@@H](O)[C@@H](O)[C@H](O[C@@H]1O[C@H](CO)[C@H](O)[C@H](O)[C@H]1O)[C@H](O)CO [Epi, 4-O-β-galactopyranosyl-d-mannose] | – | – | did not exhibit therapeutic efficacy in the management of acute inflammation | did not exhibit therapeutic efficacy in the management of acute pain | – | –
CC(C)Cc1ccc(C(C)C(=O)O)cc1 (centres unmarked) [Ibu, ibuprofen] | progressive highly significant decrease in hemoglobin | – | – | – | significant elevations in systolic blood pressure | 129.3
COc1ccc2cc([C@H](C)C(=O)O)ccc2c1 [Nap, naproxen] | progressive decrease in hemoglobin | – | – | – | significant elevations in systolic blood pressure | –
zinc carnosine [ZnCar] | – | – | did not exhibit therapeutic efficacy in the management of acute inflammation | did not exhibit therapeutic efficacy in the management of acute pain | – | –
